From US3974137A, “Process for the preparation of 1-[L-(-)-γ-amino-α-hydroxybutyryl]-kanamycin A (RD-1341A)” (priority 1974, dated 1976)
≈ marks a conversion by molar mass, not a printed value. Where “and” joins values, the source holds several entries; their conditions need not be identical. Equal values may be shown once. Where a name gives a salt, the structure may show the parent alone. Read-outs that look alike come from different tables or passages of the source.

Legend:
Escherichia coli A-15119 [1] = experiment: MIC, in vitro (Table 3); assay type: cell-based; conditions: A15119, Mueller-Hinten agar, test number 1
Excerpt: (§1) ^a MIC =minimum inhibitory concentration (μg./ml.). Tests conducte
(§2) as described by Chisholm et al., (Antimicrob. Agents and
(§3) Chemotherapy-1969, p. 244, 1970) using Mueller-Hinten agar as the test

Escherichia coli A-20520 [2] = experiment: MIC, in vitro (Table 3); assay type: cell-based
Excerpt: as §1, §2, §3

[3] = tested on: Staphylococcus aureus A-9537; experiment: MIC, in vitro (Table 3); assay type: cell-based
Excerpt: as §1, §2, §3

[4] = tested on: Staphylococcus aureus A-9537; experiment: CD50 in lethally infected mice; assay type: in vivo, Staphylococcus aureus (infected mice); conditions: for ED50: Staphylococcus aureus, A9537, sc, mice, subcutaneous, × 2 treatments (1 and 4 hours post-infection), test number 1, read-out: CD50 (curative dose, 50%); for effectiveness in infected mice (words): kanamycin A-sensitive strain
Method: (§4) ^b CD50 =curative dose, 50% (mg./kg./treated × number of
(§5) treatments). Mice were treated subcutaneously at 1 and 4 hours
(§6) post-infection when 2 treatment were administered and at 0, 2, 4 and 6
(§7) hours post-infection when 4 treatment weree given. Other aspects of the
(§8) test were carried out as described by Price et al. (J. of Antibiotics

Escherichia coli A-15119 [5] = experiment: CD50 in lethally infected mice; assay type: in vivo, Escherichia coli (infected mice); conditions: for ED50: Escherichia coli, A15119, sc, mice, subcutaneous, × 2 treatments (1 and 4 hours post-infection), test number 1, read-out: CD50 (curative dose, 50%); for effectiveness in infected mice (words): kanamycin A-sensitive strain
Method: as §4, §5, §6, §7, §8

Escherichia coli A-20520 [6] = experiment: CD50 in lethally infected mice; assay type: in vivo, Escherichia coli (infected mice); conditions: for ED50: Escherichia coli, A20520, sc, read-out: CD50 (curative dose, 50%); for effectiveness in infected mice (words): kanamycin-resistant strain
Method: as §4, §5, §6, §7, §8

[7] = Bioassay of column fractions (plate assays); assay type: cell-based; conditions: pooled column fractions; BB-K8: average of 4 plate assays, ± standard deviation
Excerpt: *Average of 4 plate assays, ± standard deviation.

B. subtilis = experiment: Relative potency, agar plate; assay type: cell-based; conditions: standard: kanamycin A free base
Method: Compound IV, as recovered from this process, is identical with authentic product obtained by the method described in co-pending application, Ser. No. 221,378. M.p. 194° (dec.) [α]D^21 +85° (c=2, H2 O). […] (standard: kanamycin A free base).

[8] = tested on: gram-positive and gram-negative bacteria; experiment: Antibacterial activity (MIC), overall comparison with kanamycin A; assay type: cell-based; conditions: in words
Excerpt: Illustrated below are two tables showing the minimal inhibitory concentrations (MIC's) of kanamycin A and compound IVa (BB-K8) against a variety of gram-positive and gram-negative bacteria as obtained by the Steers agar-dilution method (Table I) and the two-fold dilution method (Table 2). Mueller-Hinton Agar Medium was used in the study of Table 1 and Heart Infusion Broth was used in the study of Table 2.

[9] = Hygroscopicity / water uptake on storage in air; assay type: physicochemical
[10] = mice, subcutaneous, × 4 treatments (0, 2, 4 and 6 hours post-infection), test number 2

NCC[C@H](O)C(=O)N[C@@H]1C[C@H](N)[C@@H](O[C@H]2O[C@H](CN)[C@@H](O)[C@H](O)[C@H]2O)[C@H](O)[C@H]1O[C@H]1O[C@H](CO)[C@@H](O)[C@H](N)[C@H]1O [Compound IV, 1-[L-(-)-γ-amino-α-hydroxybutyryl]-kanamycin A]
MIC (Escherichia coli A-15119 [1]): 2 µg/mL (≈ 3.42 µM) | MIC (Escherichia coli A-20520 [2]; A20520, Mueller-Hinten agar, test number 1, read-out: MIC): 2 µg/mL (≈ 3.42 µM) | MIC ([3]; A9537, Mueller-Hinten agar, test number 1, read-out: MIC): 1 µg/mL (≈ 1.71 µM) | ED50 [4]: 2 mg/kg | effectiveness in infected mice (words) [4]: equally effective | effectiveness in infected mice (words) ([4]; listed as compound IV): slightly less active than kanamycin A | ED50 (Escherichia coli A-15119 [5]): 2 mg/kg | effectiveness in infected mice (words) (Escherichia coli A-15119 [5]): equally effective | ED50 (Escherichia coli A-20520 [6]; mice, subcutaneous, × 2 treatments (1 and 4 hours post-infection), test number 1): 66 mg/kg | ED50 (Escherichia coli A-20520 [6]; [10]): 5 mg/kg | effectiveness in infected mice (words) (Escherichia coli A-20520 [6]): marked protective action | times more active in 4-treatment regimen rather than in 2-treatment one (Escherichia coli A-20520 [6]; mice, 4-treatment vs 2-treatment regimen): approximately 10 times | Bioassay [7]: 786±101 | Relative potency against B. subtilis (B. subtilis): 960 µg/mg | antibacterial activity compared with kanamycin A [8]: excellent antibacterial activity that appears superior to kanamycin A itself | antibacterial activity compared with kanamycin A ([8]; listed as compound IV): superior to kanamycin A in activity, particularly against kanamycin A resistant organisms

NCC[C@H](O)C(=O)N[C@@H]1C[C@H](N)[C@@H](O[C@H]2O[C@H](CN)[C@@H](O)[C@H](O)[C@H]2O)[C@H](O)[C@H]1O[C@H]1O[C@H](CO)[C@@H](O)[C@H](N)[C@H]1O [BB-K8^. 2H2 SO4, Disulfate Salt of 1-[L-(-)-γ-amino-α-hydroxybutyryl]-kanamycin A]
water content after storage in air ([9]; Karl Fisher, in air at room temperature for 18 hours): 9.55% and 9.89% | hygroscopicity ([9]; disulfate salt): hygroscopic but not deliquescent

NCC1OC(OC2C(N)CC(N)C(OC3OC(CO)C(O)C(N)C3O)C2O)C(O)C(O)C1O (centres unmarked) [Kanamycin A]
MIC (Escherichia coli A-15119 [1]): 4 µg/mL (≈ 8.26 µM) | MIC (Escherichia coli A-20520 [2]; A20520): 125 µg/mL (≈ 258 µM) | MIC ([3]; A9537): 2 µg/mL (≈ 4.13 µM) | ED50 [4]: 0.5 mg/kg | effectiveness in infected mice (words) [4]: equally effective | ED50 (Escherichia coli A-15119 [5]): 4 mg/kg | effectiveness in infected mice (words) (Escherichia coli A-15119 [5]): equally effective | ED50 (Escherichia coli A-20520 [6]): 200 mg/kg | effectiveness in infected mice (words) (Escherichia coli A-20520 [6]): not very effective in vivo | CD50 (curative dose, 50%) (Escherichia coli A-20520 [6]; [10]): 200 mg./kg./treated × number of tr | Bioassay [7]: 809
